Data from US8394801B2, “Quinoxaline derivatives and their use for treating benign and malignant tumour disorders” (Aeterna Zentaris GmbH, priority 2009, dated 2013).
Each block holds one compound with its values, some of them ahead of it.

Experiments:
MDA MB468 = assay: Proliferation assay (Alamar Blue / XTT), MDA MB468; assay type: cell-based; settings: Homo sapiens, MDA-MB-468; cell line MDA-MB468 (breast)
NCI-H460 = assay: Proliferation assay (Alamar Blue / XTT), NCI-H460; assay type: cell-based; settings: Homo sapiens; cell line NCI-H460 (lung)
PC-3 = assay: Proliferation assay (Alamar Blue / XTT), PC-3; assay type: cell-based; settings: Homo sapiens, cell line PC3 (prostate)
HCT116 = assay: Proliferation assay (Alamar Blue / XTT), HCT116; assay type: cell-based; settings: Homo sapiens; cell line HCT-116 (colon)
SKOV-3 = assay: Proliferation assay (Alamar Blue / XTT), SKOV-3; assay type: cell-based; settings: Homo sapiens, SK-OV-3; cell line SKOV-3 (ovaries)
A549 = assay: Proliferation assay (Alamar Blue / XTT), A549; assay type: cell-based; settings: Homo sapiens; cell line A549 (lung)
U87MG = assay: Proliferation assay (Alamar Blue / XTT), U87MG; assay type: cell-based; settings: Homo sapiens, U-87 MG; cell line U87MG (glioma)
HSB-2 = assay: Proliferation assay (Alamar Blue / XTT), HSB-2; assay type: cell-based; settings: Homo sapiens, HSB2; cell line HSB-2 (leukaemia)
MOLT-16 = assay: Proliferation assay (Alamar Blue / XTT), MOLT-16; assay type: cell-based; settings: Homo sapiens; cell line MOLT-16 (leukaemia)
L363 = assay: Proliferation assay (Alamar Blue / XTT), L363; assay type: cell-based; settings: Homo sapiens, L-363; cell line L363 (leukaemia)
MESSA DX5 = assay: XTT proliferation test, doxorubicin-resistant MESSA Dx5; assay type: cell-based; settings: Homo sapiens, MES-SA/Dx5, doxorubicin-resistant cell line MESSA Dx5 (uterus)
Source text: (§1) For further characterization, the substances according to the invention were examined in resistant tumour cell lines compared to non-resistant wild-type tumour cell lines.
(§2) The cell lines examined are the cell line A2780 (ovary), the cis-platin-resistant cell line A2780 (ovary), the cell line L1210 (leukaemia), the vincristine-resistant cell line L1210 (leukaemia), the cell line MESSA (uterus), the doxorubicin-resistant cell line MESSA Dx5 (uterus), the cell line NCIH69 (lung) and the multi-drug-resistant cell line NCIH69 AR (lung).

MCF-7 = assay: Proliferation assay (Alamar Blue / XTT), MCF-7; assay type: cell-based; settings: Homo sapiens, MCF7; cell line MCF-7 (breast)
L1210 VCR = assay: XTT proliferation test, vincristine-resistant L1210; assay type: cell-based; settings: Mus musculus, vincristine-resistant cell line L1210 (leukaemia)
Source text: as §1, §2

A2780 cis-Pt = assay: XTT proliferation test, cis-platin-resistant A2780; assay type: cell-based; settings: Homo sapiens, cis-platin-resistant cell line A2780 (ovary)
Source text: as §1, §2

MOLT-3 = assay: Proliferation assay (Alamar Blue / XTT), MOLT-3; assay type: cell-based; settings: Homo sapiens; cell line MOLT-3 (leukaemia)
L1210 = assay: XTT proliferation test, L1210; assay type: cell-based; settings: Mus musculus, cell line L1210 (leukaemia), non-resistant
Source text: as §1, §2

MDA-MB435 = assay: Proliferation assay (Alamar Blue / XTT), MDA-MB435; assay type: cell-based; settings: Homo sapiens, MDA-MB-435; cell line MDA-MBA435 (breast)
RS4, 11 = assay: Proliferation assay (Alamar Blue / XTT), RS4, 11; assay type: cell-based; settings: Homo sapiens; cell line RS4,11 (leukaemia)
NALM-6 = assay: Proliferation assay (Alamar Blue / XTT), NALM-6; assay type: cell-based; settings: Homo sapiens; cell line NALM-6 (leukaemia)
TMM = assay: Proliferation assay (Alamar Blue / XTT), TMM; assay type: cell-based; settings: Homo sapiens; cell line TMM (leukaemia)
LNCaP = assay: Proliferation assay (Alamar Blue / XTT), LNCaP; assay type: cell-based; settings: Homo sapiens; cell line LnCap (prostate)
NCI H69 AR = assay: XTT proliferation test, multi-drug-resistant NCI H69 AR; assay type: cell-based; settings: Homo sapiens, NCI-H69AR, multi-drug-resistant cell line NCIH69 AR (lung)
Source text: as §1, §2

NCI H69 = assay: XTT proliferation test, NCI H69; assay type: cell-based; settings: Homo sapiens, cell line NCIH69 (lung), non-resistant
Source text: as §1, §2

KB-HeLa = assay: Proliferation assay (Alamar Blue / XTT), KB-HeLa; assay type: cell-based; settings: Homo sapiens; cell line KB/HeLa (cervix)
MESSA = assay: XTT proliferation test, MESSA; assay type: cell-based; settings: Homo sapiens, MES-SA, cell line MESSA (uterus), non-resistant
Source text: as §1, §2

A2780 = assay: XTT proliferation test, A2780; assay type: cell-based; settings: Homo sapiens, cell line A2780 (ovary), non-resistant
Source text: as §1, §2

RKOP27 = assay: Proliferation assay (Alamar Blue / XTT), RKOP27; assay type: cell-based; settings: Homo sapiens; cell line RKOp27 (colon)

SMILES: CCCCNC(=S)Nc1cnc2ccc(-c3cc(C)c(O)c(C)c3)cc2n1 [Compound 32, 1-Butyl-3-[7-(4-hydroxy-3,5-dimethylphenyl)quinoxalin-2-yl]thiourea]
- EC50 (MDA MB468): 20 nM
- EC50 (NCI-H460): 30 nM
- EC50 (PC-3): 9 nM
- melting point: 278 to 280 °C
- EC50 (HCT116): 16 nM
- EC50 (SKOV-3): 27 nM
- EC50 (A549): 9 nM
- EC50 (U87MG): 3 nM

SMILES: Cc1cc(-c2ccc3ncc(NC(=O)NC4CCCCC4)nc3c2)cc(C)c1O [Compound 12, 1-Cyclohexyl-3-[7-(4-hydroxy-3,5-dimethylphenyl)quinoxalin-2-yl]urea]
- EC50 (MDA MB468): 125 nM
- EC50 (NCI-H460): 85 nM
- EC50 (PC-3): 51 nM
- EC50 (HCT116): 42 nM
- EC50 (SKOV-3): 67 nM
- EC50 (A549): 76 nM
- EC50 (U87MG): 77 nM

SMILES: Cc1cc(-c2ccc3ncc(NC(=O)Nc4cccs4)nc3c2)cc(C)c1O [Compound 15, 1-[7-(4-Hydroxy-3,5-dimethylphenyl)quinoxalin-2-yl]-3-thiophen-2-ylurea]
- EC50 (MDA MB468): 835 nM
- EC50 (NCI-H460): 714 nM
- EC50 (PC-3): 309 nM
- EC50 (HCT116): 475 nM
- EC50 (SKOV-3): 1810 nM
- EC50 (A549): 836 nM
- EC50 (U87MG): 1340 nM

SMILES: Cc1cc(-c2ccc3ncc(NC(=S)NC(C)C)nc3c2)cc(C)c1O [Compound 31, 1-[7-(4-Hydroxy-3,5-dimethylphenyl)quinoxalin-2-yl]-3-isopropylthiourea]
- EC50 (MDA MB468): 25 nM
- EC50 (NCI-H460): 60 nM
- EC50 (PC-3): 15 nM
- melting point: 269 to 271 °C
- EC50 (HCT116): 30 nM
- EC50 (SKOV-3): 45 nM
- EC50 (A549): 23 nM
- EC50 (U87MG): 13 nM

Further lines, with some results ahead:

- EC50 (NCI-H460): 38 nM
- EC50 (PC-3): 16 nM
- melting point: 276 to 280 °C
- EC50 (HCT116): 21 nM
- EC50 (SKOV-3): 32 nM
- EC50 (A549): 46 nM
- EC50 (U87MG): 8 nM
SMILES: CCCCNC(=O)Nc1cnc2ccc(-c3cc(C)c(O)c(C)c3)cc2n1 [Compound 18, 1-Butyl-3-[7-(4-hydroxy-3,5-dimethylphenyl)quinoxalin-2-yl]urea]
- EC50 (MDA MB468): 30 nM

- EC50 (MOLT-16): 56 nM
- EC50 (NCI-H460): 47 nM
- EC50 (PC-3): 28 nM
- EC50 (MCF-7): 32 nM
- EC50 (L1210 VCR): 4 nM
- melting point: 280 to 283 °C
- EC50 (A2780 cis-Pt): 0.5 nM
- EC50 (MOLT-3): 36 nM
- EC50 (L1210): 2 nM
- EC50 (MDA-MB435): 18 nM
- EC50 (RS4, 11): 37 nM
- EC50 (HCT116): 24 nM
- EC50 (LNCaP): 40 nM
- EC50 (KB-HeLa): 37 nM
- EC50 (SKOV-3): 40 nM
- EC50 (A2780): 0.3 nM
- EC50 (A549): 29 nM
- EC50 (U87MG): 10 nM
SMILES: Cc1cc(-c2ccc3ncc(NC(=O)NC(C)C)nc3c2)cc(C)c1O [Compound 17, 1-[7-(4-Hydroxy-3,5-dimethylphenyl)quinoxalin-2-yl]-3-isopropylurea]
- EC50 (HSB-2): 37 nM
- EC50 (MDA MB468): 39 nM
- EC50 (L363): 78 nM
- EC50 (MESSA DX5): 139 nM
- EC50 (NALM-6): 54 nM
- EC50 (TMM): 32 nM
- EC50 (NCI H69 AR): 86 nM
- EC50 (NCI H69): 27 nM
- EC50 (MESSA): 152 nM
- EC50 (RKOP27): 26 nM

- EC50 (NCI-H460): 218 nM
- EC50 (PC-3): 76 nM
- EC50 (HCT116): 91 nM
- EC50 (A549): 217 nM
- EC50 (U87MG): 105 nM
SMILES: C=CCNC(=O)Nc1cnc2ccc(-c3cc(C)c(O)c(C)c3)cc2n1 [Compound 41, 1-Allyl-3-[7-(4-hydroxy-3,5-dimethylphenyl)quinoxalin-2-yl]urea]
- EC50 (MDA MB468): 131 nM

- EC50 (NCI-H460): 27 nM
- EC50 (PC-3): 11 nM
- EC50 (L1210 VCR): 19 nM
- melting point: 243 to 244 °C
- EC50 (A2780 cis-Pt): 14 nM
- EC50 (L1210): 15 nM
- EC50 (HCT116): 7 nM
- EC50 (SKOV-3): 30 nM
- EC50 (A2780): 18 nM
- EC50 (A549): 8 nM
- EC50 (U87MG): 2 nM
SMILES: CCNC(=S)Nc1cnc2ccc(-c3cc(C)c(O)c(C)c3)cc2n1 [Compound 22, 1-Ethyl-3-[7-(4-hydroxy-3,5-dimethylphenyl)quinoxalin-2-yl]thiourea]
- EC50 (MDA MB468): 53 nM
- EC50 (MESSA DX5): 38 nM
- EC50 (NCI H69 AR): 8 nM
- EC50 (NCI H69): 10 nM
- EC50 (MESSA): 141 nM
- EC50 (RKOP27): 28 nM
